Columns and labels:
Type in all cases: in vivo
[1] = tested on: corn plants, 111 day, central corn belt variety; experiment: Corn plant chilling (growth rate); conditions: for Growth Rate, Greenhouse 7-9 d post spray / Growth Rate, Greenhouse 0-2 d post spray / Growth Rate, Growth Chamber 10° C. 2-7 d post spray: Table 3 study; for Growth Rate, Greenhouse 7-9 d post spray: after chilling; for Growth Rate, Growth Chamber 10° C. 2-7 d post spray: during chilling at 10° C.
Protocol: Corn seeds of a 111 day, central corn belt variety were planted in 2-quart pots filled with medium. After the corn grew for 10 days in the greenhouse at 24±3° C. (V2 to V3 growth stage), the plants received a foliar spray application of aqueous solutions of the test compounds containing 0.25% non-ionic surfactant with a volume equivalent to 30 gallons/acre. After spraying, plants were moved back to the greenhouse for 2 days, then moved to a growth chamber kept at 10° C. with a 16:8 light:dark cycle (cold treatment). After 5 days in the cold, plants were returned to the greenhouse for 2 days before being harvested destructively. Results of the studies comparing the growth rate of plants treated with S-ABA with 3′-methyl-(S)-ABA during the experiment are shown in Table 3. In additional studies, the effect of S-ABA and 3′-propargyl-(S)-ABA on corn growth rate in chilling studies was compared.

[2] = tested on: corn plants, commercial 111 day, central corn belt variety; experiment: Corn stomatal conductance; conditions: for Average Stomatal Conductance (% of Control), 6 DAS: 6 days after spraying; for Average Stomatal Conductance (% of Control), 16 DAS: 16 days after spraying
Protocol: (§1) In this greenhouse experiment, foliar spray treatments containing 3′-methyl-(S)-abscisic acid, 3′-propargyl-(S)-abscisic acid or (S)-abscisic acid were applied to corn plants to evaluate their effect on gas exchange, as measured through stomatal conductance. Corn plants of a commercial, 111 day, central corn belt variety were grown in the greenhouse under optimal conditions for five weeks and were size-matched into ten groups of five plants. Using an aerosol sprayer, each group was sprayed to drip (25 milliliters per plant) with solutions containing a non-ionic surfactant (0.125%, v/v) and water (control), 2.5 mg, 7.5 mg or 25 mg/plant 3′-methyl-(S)-abscisic acid, or 2.5 mg, 7.5 mg or 25 mg/plant 3′-propargyl-(S)-abscisic acid, or 7.5 mg, 25 mg or 75 mg/plant (5)-ABA, respectively. After spraying, plants were returned to the greenhouse for the duration of the experiment. Stomatal conductance was measured using an AP4 porometer (Delta T Devices, Cambridge, UK) and the conductance for each plant was recorded at approximately the same time of day (˜10 AM) prior to treatment application as well as 1, 2, 5, 6, 9 and 16 days post-spraying.

[3] = tested on: corn plants, commercial 111 day, central corn belt variety; experiment: Corn plant leaf rolling assay and shoot fresh weight under drought; conditions: for Shoot Fresh Weight, 15 DAS: 12 days drought then 3 days watering; for Average # of Rolled Leaves/Plant, 5 DAS / Average # of Rolled Leaves/Plant, 6 DAS / Average # of Rolled Leaves/Plant, 8 DAS: water withheld; for Average # of Rolled Leaves/Plant, 5 DAS: 5 days after spraying; for Average # of Rolled Leaves/Plant, 6 DAS: 6 days after spraying; for Average # of Rolled Leaves/Plant, 8 DAS: 8 days after spraying
Protocol: as §1, with “post-spraying. This study was conducted as described above with the following the exceptions. After spraying, plants were put back in the greenhouse and water was withheld for twelve days, simulating drought stress. The plants were then watered to saturation for three consecutive days before the plant shoots were cut at the soil surface and subsequently weighed in grams (fresh weight). Leaf-rolling data and fresh weight data were recorded for each plant following treatment application at the times specified below in Table 6.” for “post-spraying.”

soybean plants = experiment: Soybean drought tolerance (stomatal conductance)
Protocol: In this study, soybean plants were grown for 10 days under ambient lab temperature conditions and illumination of 150 umol m^2 s^−1 and a 16:8 photoperiod. At spraying, the primary leaves were fully expanded and the first trifoliate leaves were partially expanded. The plants were sprayed to dampness with solutions of water, S-ABA, 3′-methyl-(S)-abscisic acid, or 3′-propargyl-(S)-abscisic acid containing 0.025% (v/v) non-ionic surfactant. At times following spraying, the conductance of the primary leaves was measured using an AP4 porometer (Delta T Devices, Cambridge, UK) to evaluate the effect on stomatal conductance. A decrease in stomatal aperture, reflected in the conductance measures, is an immediate and direct effect of applied S-ABA. To simplify the data, the controls were always set to 100%. In Table 9, the effect of spray applications on the stomatal conductance was measured.

[4] = foliar spray 30 mg/l (3.4 g/acre)
[5] = foliar spray 100 mg/l (11.4 g/acre)
[6] = foliar spray 300 mg/l (34.1 g/acre)
[7] = foliar spray 1000 mg/l (113.7 g/acre)
[8] = foliar spray 100 ppm or 2.5 mg/plant
[9] = foliar spray 300 ppm or 7.5 mg/plant
[10] = foliar spray 1000 ppm or 25 mg/plant

## CC1=C(C)[C@](O)(/C=C/C(C)=C\C(=O)O)C(C)(C)CC1=O [3′-methyl-(S)-ABA, (2Z,4E)-5-((S)-1-hydroxy-2,3,6,6-tetramethyl-4-oxocyclohex-2-en-1-yl)-3-methylpenta-2,4-dienoic acid]
[1]; S-ABA even at 1000 mg/l (113.7 g/acre)
  Maintenance of growth under cold (10° C.) conditions: maintained growth
[1]; [4]
  Growth Rate, Greenhouse 7-9 d post spray: 2.650 cm/day
  Growth Rate, Growth Chamber 10° C. 2-7 d post spray: 1.092 cm/day
[1]; foliar spray 30 mg/l (3.4 g/acre), before chilling
  Growth Rate, Greenhouse 0-2 d post spray: 3.725 cm/day
[1]; [5]
  Growth Rate, Greenhouse 7-9 d post spray: 2.795 cm/day
  Growth Rate, Growth Chamber 10° C. 2-7 d post spray: 1.084 cm/day
[1]; foliar spray 100 mg/l (11.4 g/acre), before chilling
  Growth Rate, Greenhouse 0-2 d post spray: 4.290 cm/day
[1]; [6]
  Growth Rate, Greenhouse 7-9 d post spray: 3.565 cm/day
  Growth Rate, Growth Chamber 10° C. 2-7 d post spray: 0.990 cm/day
[1]; foliar spray 300 mg/l (34.1 g/acre), before chilling
  Growth Rate, Greenhouse 0-2 d post spray: 3.645 cm/day
[1]; [7]
  Growth Rate, Greenhouse 7-9 d post spray: 2.945 cm/day
  Growth Rate, Growth Chamber 10° C. 2-7 d post spray: 1.160 cm/day
[1]; foliar spray 1000 mg/l (113.7 g/acre), before chilling
  Growth Rate, Greenhouse 0-2 d post spray: 3.615 cm/day
[1]; before chilling
  Plant growth initially following spraying: initially suppressed
[1]; in one of two studies, not repeatable across studies, 3′-methyl-(S)-abscisic acid at 30, 100 and 300 mg/liter
  Leaf area: increased
[2]; [8]
  Average Stomatal Conductance (% of Control), 6 DAS: 93.3 % of Control
  Average Stomatal Conductance (% of Control), 16 DAS: 98.3 % of Control
[2]; [9]
  Average Stomatal Conductance (% of Control), 6 DAS: 70.6 % of Control
  Average Stomatal Conductance (% of Control), 16 DAS: 79.4 % of Control
[2]; [10]
  Average Stomatal Conductance (% of Control), 6 DAS: 69.6 % of Control
  Average Stomatal Conductance (% of Control), 16 DAS: 74.5 % of Control
[2]; regression of the data in Table 5
  Relative potency resulting in a 25% reduction in transpiration, times that seen with S-ABA: 1.97 times
[3]; 100 ppm or 2.5 mg/plant
  Shoot Fresh Weight, 15 DAS: 256.0 grams
  Average # of Rolled Leaves/Plant, 5 DAS: 1.6
  Average # of Rolled Leaves/Plant, 6 DAS: 4.6
  Average # of Rolled Leaves/Plant, 8 DAS: 9.0
[3]; 300 ppm or 7.5 mg/plant
  Shoot Fresh Weight, 15 DAS: 276.6 grams
  Average # of Rolled Leaves/Plant, 5 DAS: 2.0
  Average # of Rolled Leaves/Plant, 6 DAS: 3.6
  Average # of Rolled Leaves/Plant, 8 DAS: 8.4
[3]; 1000 ppm or 25 mg/plant
  Shoot Fresh Weight, 15 DAS: 373.4 grams
  Average # of Rolled Leaves/Plant, 6 DAS: 2.2
  Average # of Rolled Leaves/Plant, 8 DAS: 7.2
Soybean plants; 300 mg/l foliar spray
  Reduction in stomatal conductance at 1 day post spraying: 89%
Soybean plants; foliar spray 300 mg/l, 0.3 mg/plant, Day 1
  Percent Conductance (stomatal conductance, control = 100%), Day 1: 11%
Soybean plants; foliar spray 300 mg/l, 0.3 mg/plant, Day 2
  Percent Conductance (stomatal conductance, control = 100%), Day 2: 18%
Soybean plants; foliar spray 300 mg/l, 0.3 mg/plant, Day 5
  Percent Conductance (stomatal conductance, control = 100%), Day 5: 36%
Soybean plants; foliar spray 300 mg/l, 0.3 mg/plant, Day 6
  Percent Conductance (stomatal conductance, control = 100%), Day 6: 68%
Soybean plants; foliar spray 300 mg/l, 0.3 mg/plant, Day 7
  Percent Conductance (stomatal conductance, control = 100%), Day 7: 79%

— patent US10314307B2, “(S)-abscisic acid derivatives for improving plant stress tolerance” (Valent BioSciences Corporation, priority 2015, dated 2019)
